The nature of series [1]: Nonenzymatic pGlu-formation at pH 6.0 followed for 4 weeks. The note with it: pH 6.0, 4 weeks.
Series [2] addresses T1, human QC (Homo sapiens, UniProt Q16769).
T1 construct: The cDNA of the mature QC starting with codon 38 was fused in frame with the plasmid encoded 6× histidine tag; 6xHis; made in house; host or cells: Pichia pastoris X33 (pPICZαB, secreted); also E. coli M15 (pQE-31)
As to the kind of experiment: Qualitative substrate conversion (MALDI-TOF / fluorometric). The format is biochemical. The procedure: (§1) Matrix-assisted laser desorption/ionization mass spectrometry was carried out using the Hewlett-Packard G2025 LD-TOF System with a linear time of flight analyzer. […] Samples (5 μl) were mixed with equal volumes of the matrix solution. For matrix solution we used DHAP/DAHC, prepared by solving 30 mg 2′,6′-dihydroxyacetophenone (Aldrich) and 44 mg diammonium hydrogen citrate (Fluka) in 1 ml acetonitrile/0.1% TFA in water (1/1, v/v). A small volume (≈1 μl) of the matrix-analyte-mixture was transferred to a probe tip and immediately evaporated in a vacuum chamber (Hewlett-Packard G2024A sample prep accessory) to ensure rapid and homogeneous sample crystallization.
In order to further investigate the specificity and selectivity of the QCs, peptides were synthesized comprising either a modified N-terminal glutaminyl residue or a modified amino acid in the second position. […] Due to the cyclization of the glutaminyl residue or its analog, respectively, a mass difference of the substrate and the product of catalysis is detected. In cases of ammonia liberation of one mole per mole of substrate, the conversion was also analyzed quantitatively using the spectrophotometric assay.

A short description of series [3]: Thioflavin T assay of fibril formation. The format is physicochemical. As to the method:
The observations for the Aβ42 peptides were substantiated using a common ThT fluorescence assay (FIG. 24-6D). […] The typical lag phase, i.e. the thermodynamically unfavorable period, in which the seeds are generated, is displaced by a hyperbolic initial phase. Thus, there is a much higher tendency to formation of ThT positive initial aggregates.
Fibril formation analysis using Thioflavin T fluorescence was performed essentially as described previously (Chalifour R J, McLaughlin R W, Lavoie L, Morissette C, Tremblay N, Boule M, Sarazin P, Stea D, Lacombe D, Tremblay P, Gervais F 2003 Stereoselective interactions of peptide inhibitors with the beta-amyloid peptide. J Biol Chem 278:34874-34881). The DMSO stock solution was diluted in PBS to a final concentration of 50 μM of Aβ peptide. The peptide solution was added to an equal volume of ThT solution (20 μM ThT, 0.3 M NaCl, 0.01% NaN3) and applied to a 96-well microplate. Routinely, assays of each peptide were performed in triplicate on one plate. The plate was covered with an adhesive film (EXCEL Scientific, Wrightwood, Calif., USA) and incubated in the plate reader at 30° C. for up to 250 h. The fluorescence was measured every 4 h (excitation 440 nm, emission […]).

The nature of a further series: physchem. The note with it: pKa of the substrate amino group, determined by titration.
For series [4], the target named is T1, human QC. As to the kind of experiment: Enzyme inactivation/reactivation procedures. The conditions noted are these: for inactivation of human QC: extensive dialysis against 5 mM chelator. Format: biochemical.
In the next series the target is mammalian QC (Bos taurus, UniProt Q28120). The conditions noted are these: cited from earlier work.
Sequence of mammalian QC (Q28120 29-361): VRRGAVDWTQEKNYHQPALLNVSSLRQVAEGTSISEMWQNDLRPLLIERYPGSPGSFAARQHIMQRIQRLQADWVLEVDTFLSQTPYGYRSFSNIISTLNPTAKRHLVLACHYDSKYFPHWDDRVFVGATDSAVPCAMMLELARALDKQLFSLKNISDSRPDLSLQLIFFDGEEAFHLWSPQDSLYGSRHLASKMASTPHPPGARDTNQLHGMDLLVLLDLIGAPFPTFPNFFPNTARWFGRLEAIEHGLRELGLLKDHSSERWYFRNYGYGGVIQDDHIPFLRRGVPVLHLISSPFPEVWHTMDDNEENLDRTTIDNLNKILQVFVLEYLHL
Series [5] concerns the target T1, human QC. The conditions noted are these: cited from earlier work.
The subject of series [6] is QC in porcine pituitary homogenate. As to the kind of experiment: Formation of [pGlu3]Aβ3-11a in porcine pituitary homogenate, MALDI-TOF. The format is biochemical. The conditions noted are these: for formation of [pGlu^3]Aβ3-11a from [Gln^3]Aβ1-11a, consecutive catalysis by DP IV and QC: pituitary homogenate with added DPIV from porcine kidney. As to the method:
as §1

The nature of series [7]: Aβ aggregation assay with flow cytometry. Format: physicochemical. The note with it: 10 μM peptide, up to 24 h.
Procedure: At different times, samples were removed, diluted to 10 nM (based on the initial concentration of the monomer), and analyzed by flow cytometry.
Seedless Aβ peptides were diluted to 10 μM (final total peptide concentration) into 50 mM sodium acetate, pH 5.5 containing 2 mM DTT and 100 mM NaCl and incubated at 37° C. without shaking. For fibril formation analysis, the peptides were either used as a mixture of unlabeled peptide (80%) and the respective fluorescence labeled peptide (20%) or as unlabeled peptides alone. […] In order to characterize the progress of the reaction, aliquots were removed at the indicated times, diluted to 10 nM into PBS-T (0.05% Tween-20) and analyzed. For reactions containing unlabeled peptides only, prior to flow cytometry aliquots were diluted to 5 nM into PBS-T and incubated with fluorescence labeled antibody 4G8 (Chemicon, Tececula, Calif.) at 1 nM for 1 h at 4° C.
To ensure identical conditions for all measurements, all samples were measured in TruCount Tubes (BD Biosciences) and analysis was stopped after 20,000 beads were counted. Counts were transferred into ANSMS for evaluation (Alzheimer normalized specific measurement signal: event counts from flow cytometry analysis normalized to the size of the particles, i.e. to a mean size of FS Log=250).
The next series relates to THP-1 monocytes. As to the kind of experiment: TransWell chemotaxis assay. The format is cell-based, human. The conditions noted are these: supernatant of transfected HEK293 cells. As to the method:
The chemotaxis assay was performed using 24 well TransWell plates with a pore size of 5 μm (Corning). Media, containing human MCP-1 variants expressed in HEK293, were used as chemoattractant. To this avail, 600 μl of the culture media of N-terminal human MCP-1 variants was applied directly or in dilutions 1:3, 1:10 and 1:30 in RPMI1640 to the lower chamber of the TransWell plate. Furthermore, undiluted media of HEK293 cells transfected with vector control were applied as negative control to the lower chamber. THP-1 cells were harvested and resuspended in RPMI1640 in a concentration of 1*10^6 cells/100 μl and applied in 100 μl aliquots to the upper chamber. Cells were allowed to migrate towards the chemoattractant for 2 h at 37° C. Subsequently, cells from the upper chamber were discarded and the lower chamber was mixed with 70 mM EDTA in PBS and incubated for 15 min at 37° C. to release cells attached to the membrane. Afterwards, cells migrated to the lower chamber were counted using a cell counter system (Schärfe System). The chemotactic index was calculated by dividing cells migrated to the stimulus from cells migrated to the negative control.

The target of series [8] is T1, human QC. As to the kind of experiment: Long-term Glu1-cyclization of Aβ-derived peptides by recombinant human QC, MALDI-TOF. The format is biochemical. The conditions noted are these: 5 mM inhibitor, pH 5.2 / 6.5. The procedure: For long-term testing of Glu^1-cyclization, Aβ-derived peptides were incubated in 100 μl 0.1 M sodium acetate buffer, pH 5.2 or 0.1 M Bis-Tris buffer, pH 6.5 at 30° C. Peptides were applied in 0.5 mM [Aβ3-11a] or 0.15 mM [Aβ3-21a] concentrations, and 0.2 U QC was added all 24 hours. In case of Aβ3-21a, the assays contained 1% DMSO. At different times, samples were removed from the assay tube, peptides extracted using ZipTips (Millipore) according to the manufacturer's recommendations, mixed with matrix solution (1:1 v/v) and subsequently the mass spectra recorded. Negative controls did either contain no QC or heat deactivated enzyme.
The QC-catalyzed formation of [pGlu^3]Aβ3-11a and [pGlu^3]Aβ3-21a was investigated at pH 5.2 and 6.5, respectively. If the QC-inhibitor benzimidazole was added to the solution before starting the assay by addition of QC, substrate conversion resulting in [pGlu^3]Aβ3-11a or [pGlu^3]Aβ3-21a was suppressed (FIGS. 15E and F). If QC was boiled before addition, formation of the pGlu-peptides was negligible (FIGS. 15A and B).

The next series addresses T2, DP IV (porcine kidney) (Sus scrofa, UniProt P22411).
T2 construct: Measurements were carried out using purified DP IV (porcine kidney); from tissue; host or cells: porcine kidney
As to the kind of experiment: DP IV cleavage of [Gln3]Aβ1-11a, MALDI-TOF. The format is biochemical. As to the method:
as §1

T1 sequence (Q16769 29-361): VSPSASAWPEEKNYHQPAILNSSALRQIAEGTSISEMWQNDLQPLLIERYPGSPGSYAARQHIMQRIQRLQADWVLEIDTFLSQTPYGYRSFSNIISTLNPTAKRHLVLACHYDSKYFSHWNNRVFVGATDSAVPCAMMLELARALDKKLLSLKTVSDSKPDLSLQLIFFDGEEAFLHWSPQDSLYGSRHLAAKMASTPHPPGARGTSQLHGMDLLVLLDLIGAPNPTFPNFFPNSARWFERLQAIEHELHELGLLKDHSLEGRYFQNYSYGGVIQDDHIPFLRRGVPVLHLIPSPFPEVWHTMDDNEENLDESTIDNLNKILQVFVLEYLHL
T2 sequence (P22411 whole entry): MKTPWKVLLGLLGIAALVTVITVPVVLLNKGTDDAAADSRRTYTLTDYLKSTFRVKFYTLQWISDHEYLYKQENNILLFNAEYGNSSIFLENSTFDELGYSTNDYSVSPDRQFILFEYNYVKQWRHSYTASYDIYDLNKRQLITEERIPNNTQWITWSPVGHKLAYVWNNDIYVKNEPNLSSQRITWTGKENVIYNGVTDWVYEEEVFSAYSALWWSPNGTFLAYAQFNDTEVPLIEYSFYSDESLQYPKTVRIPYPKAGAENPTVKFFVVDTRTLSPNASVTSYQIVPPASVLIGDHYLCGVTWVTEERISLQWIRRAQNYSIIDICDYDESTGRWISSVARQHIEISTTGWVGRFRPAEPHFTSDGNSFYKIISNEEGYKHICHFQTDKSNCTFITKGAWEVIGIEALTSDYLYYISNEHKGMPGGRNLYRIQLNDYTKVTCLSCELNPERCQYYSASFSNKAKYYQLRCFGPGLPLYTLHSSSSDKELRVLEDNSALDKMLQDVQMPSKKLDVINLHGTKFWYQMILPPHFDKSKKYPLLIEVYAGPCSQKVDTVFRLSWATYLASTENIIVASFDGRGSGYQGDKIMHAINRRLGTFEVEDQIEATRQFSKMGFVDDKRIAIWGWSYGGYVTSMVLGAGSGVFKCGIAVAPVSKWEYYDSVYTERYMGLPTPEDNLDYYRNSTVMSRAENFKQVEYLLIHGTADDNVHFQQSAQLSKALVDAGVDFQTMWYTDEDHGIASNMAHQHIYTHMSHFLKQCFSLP
Procedure for physchem: The ionic strength was adjusted to 0.05 M by addition of NaCl. The rate profiles were evaluated by fitting to a model that is based on dissociating groups.
For both determinations, a three-component buffer system was applied consisting of 0.05 M acetic acid, 0.05 M pyrophosphoric acid and 0.05 M Tricine. All buffers were adjusted to equal conductivity by addition of NaCl, in order to avoid differences in ionic strength. […] All determinations were carried out at 30° C.

As for `N[C@@H](CCC(=O)O)C(=O)Nc1ccc2ccccc2c1` [H-Glu-βNA], the “first-order rate constant of nonenzymatic pGlu-formation” value in series [1] is ≤ 1.0*10^−9 s^−1. Moreover, on human QC [2], the “conversion by human QC” value is reported as “None of these compounds were converted”.
Regarding “pGlu-Aβ(3-40): N-terminally pyroglutamate-modified Aβ(3-40)”, in series [3], the “aggregation, ThT fluorescence” value was “much faster aggregation compared to the non-cyclized counterpart”.
One may read the pKa as the negative logarithm of the acid dissociation constant. Regarding `NC(=O)CC[C@H](N)C(=O)Nc1ccc2ccccc2c1` [H-Gln-βNA], the “first-order rate constant of nonenzymatic pGlu-formation” value in series [1] was 1.2*10^−7 s^−1. Moreover, the pKa in the series “physchem” was found to be 7.16 ± 0.01.
With `c1cnc2c(c1)ccc1cccnc12` [1,10-phenanthroline], the “inactivation of human QC” value on human QC [4] is reported as “almost completely inactivated”. In addition, the “inhibition of mammalian QC” value at mammalian QC is reported as “Inhibition”. Besides, the “inhibition of human QC” value at human QC [5] was “inhibited”. In addition, the “formation of [pGlu^3]Aβ3-11a from [Gln^3]Aβ1-11a, consecutive catalysis by DP IV and QC” value in series [6] is “not formed”. The “formation of [pGlu^3]Aβ3-11a from [Gln^3]Aβ3-11a” value in series [6] (porcine pituitary homogenate) is recorded as “inhibited”.
The term melting point denotes the temperature of the solid-liquid transition. In turn, `Fc1ccc(NC(=S)NCCCn2ccnc2)cc1` came in with a melting point of 147 to 148 °C.
As to Aβ(1-42): SEQ ID NO: 20, the “fibril formation” value in [7] was “Only very little fibril formation”.
As for `O=S(=O)([O-])[O-].[Zn+2]` [ZnSO4], at human QC [4] (0.5 mM metal ion, 0.5 mM EDTA), the “restoration of QC activity after inactivation” value is reported as “Near-total restoration”.
With “MCP-1 (WT): human MCP-1(1-76) expressed in HEK293 cells”, the “chemotaxis of THP-1 cells” value with THP-1 monocytes is recorded as “chemotactic response”.
As for `c1ccc2[nH]cnc2c1` [benzimidazole], at human QC [8], the “formation of [pGlu^3]Aβ3-11a or [pGlu^3]Aβ3-21a in presence of inhibitor” value was “suppressed”.
For `O=C(O)c1cccc(C(=O)O)n1` [dipicolinic acid], the “inactivation of human QC” value on human QC [4] is recorded as “almost completely inactivated”. The “inhibition of human QC” value on human QC [5] is recorded as “inhibited”.
On to `CC(C)[C@H](N)C(=O)N1CCCC1` [Val-Pyrr, Val-Pyrrolidide], for which the “formation of [pGlu^3]Aβ3-11a from [Gln^3]Aβ1-11a, consecutive catalysis by DP IV and QC” value in series [6] is reported as “not formed”. Further, the “DPIV-catalysed formation of [Gln^3]Aβ3-11a from [Gln^3]Aβ1-11a” value on DP IV (porcine kidney) is reported as “completely prevented”.
